# System: ApoA-I mRNA
# Test: Quantification of ApoA-I mRNA in HepG2 cells (real-time PCR)
# Type: cell-based
# Design: key: Active: An active compound was defined as one that caused a ≧20% increase in ApoA-I mRNA at a concentration less than or equal to 100 μM
# Conditions: fold induction relative to DMSO control, concentration less than or equal to 100 μM
# Experimental: In this example, ApoA-I mRNA in tissue culture cells was quantitated to measure the transcriptional up-regulation of ApoA-I when treated with a compound of the invention.
# HepG2 cells (approximately 2×10^5 per well) were placed in a 24-well plate in approximately 400 μL MEM, supplemented with 0.5% (v/v) FBS, 24 h before addition of the compound of interest. At time of harvesting, the spent media was removed from the HepG2 cells and immediately placed on ice (for immediate use) or at −80° C. (for future use) in ApoA-I and albumin ELISAs. The cells remaining in the plate wells were rinsed in 200 μL PBS. PBS was carefully removed to avoid removing any loosely attached cells.
# Once the PBS was removed, 85 μL cell lysis solution was added the cells in each well and incubated for 5-10 minutes at room temperature, to allow for complete cell lysis and detachment. mRNA was then prepared using the “mRNA Catcher PLUS plate” from Invitrogen, according to the protocol supplied. After the last wash, as much wash buffer as possible was aspirated without allowing the wells to dry. Elution Buffer (E3, 80 μL) was then added to each well. mRNA was then eluted by incubating the mRNA Catcher PLUS plate with Elution Buffer for 5 minutes at 68° C. and then immediately placing the plate on ice.
# The eluted mRNA isolated was then used in a one-step real-time […] reaction, using components of the Ultra Sense Kit together with Applied Biosystems primer-probe mixes. Real-time PCR data was analyzed, using the Ct values, to determine the fold induction of each unknown sample, relative to the control (that is, relative to the control for each independent DMSO concentration).
# An active compound was defined as one that caused a ≧20% increase in ApoA-I mRNA at a concentration less than or equal to 100 μM.
row,Compound,Effect on ApoA-I mRNA levels
1,"CCC(C)c1ccc(-n2c(-c3ccc4cc[nH]c4c3)nc3ccccc3c2=O)cc1 (stereo not drawn) [Example 87, 3-(4-sec-butylphenyl)-2-(1H-indol-6-yl)quinazolin-4(3H)-one]",Active
2,"Cc1cc(-c2nc3ccccc3c(=O)n2-c2ccc(N(C)C)cc2)cc(C)c1OCCO [Example 32, 3-(4-(dimethylamino)phenyl)-2-(4-(2-hydroxyethoxy)-3,5-dimethylphenyl)quinazolin-4(3H)-one]",Active
3,"CCC(C)c1ccc(-n2c(-c3ccc(OCCO)c(C)c3)nc3ccccc3c2=O)cc1 (stereo not drawn) [Example 33, 3-(4-sec-butylphenyl)-2-(4-(2-hydroxyethoxy)-3-methylphenyl)quinazolin-4(3H)-one]",Active
4,"CCC(C)c1ccc(-n2c(-c3cncc(F)c3)nc3ccccc3c2=O)cc1 (stereo not drawn) [Example 37, 3-(4-sec-butylphenyl)-2-(5-fluoropyridin-3-yl)quinazolin-4(3H)-one]",Active
5,"O=c1c2ccccc2nc(-c2ccc(Oc3ccccc3)nc2)n1-c1ccc(Cl)cc1 [Example 50, 3-(4-chlorophenyl)-2-(6-phenoxypyridin-3-yl)quinazolin-4(3H)-one]",Active
6,"O=c1c2ccccc2nc(-c2cccc3cc[nH]c23)n1-c1ccc(Cl)cc1 [Example 86, 3-(4-chlorophenyl)-2-(1H-indol-7-yl)quinazolin-4(3H)-one]",Active
7,"O=c1c2ccccc2nc(-c2ccc3[nH]ccc3c2)n1-c1ccc(C2CCCC2)cc1 [Example 84, 3-(4-cyclopentylphenyl)-2-(1H-indol-5-yl)quinazolin-4(3H)-one]",Active
8,"CCC(C)c1ccc(-n2c(-c3ccc(N4CCCCC4)nc3)nc3ccccc3c2=O)cc1 (stereo not drawn) [Example 49, 3-(4-sec-butylphenyl)-2-(6-(piperidin-1-yl)pyridin-3-yl)quinazolin-4(3H)-one]",Active
9,"CCC(C)c1ccc(-n2c(-c3ccc(Oc4ccccc4)nc3)nc3ccccc3c2=O)cc1 (stereo not drawn) [Example 52, 3-(4-sec-butylphenyl)-2-(6-phenoxypyridin-3-yl)quinazolin-4(3H)-one]",Active
10,"Cn1ccc2cc(-c3nc4ccccc4c(=O)n3-c3ccc(Cl)cc3)ccc21 [Example 83, 3-(4-chlorophenyl)-2-(1-methyl-1H-indol-5-yl)quinazolin-4(3H)-one]",Active
11,"Cc1cc(-c2nc3ccccc3c(=O)n2-c2ccc(N)cc2)cc(C)c1OCCO [Example 28, 3-(4-aminophenyl)-2-(4-(2-hydroxyethoxy)-3,5-dimethylphenyl)quinazolin-4(3H)-one]",Active
12,"CCC(C)c1ccc(-n2c(-c3ccc4[nH]ccc4c3)nc3ccccc3c2=O)cc1 (stereo not drawn) [Example 74, 3-(4-sec-butylphenyl)-2-(1H-indol-5-yl)quinazolin-4(3H)-one]",Active
13,"O=c1c2ccccc2nc(-c2ccc3[nH]ccc3c2)n1-c1ccc(Cl)cc1 [Example 73, 3-(4-chlorophenyl)-2-(1H-indol-5-yl)quinazolin-4(3H)-one]",Active
14,"CCC(C)c1ccc(-n2c(-c3ccc(OC)nc3)nc3ccccc3c2=O)cc1 (stereo not drawn) [Example 40, 3-(4-sec-butylphenyl)-2-(6-methoxypyridin-3-yl)quinazolin-4(3H)-one]",Active
15,"CCC(C)c1ccc(-n2c(-c3ccc(Cl)nc3)nc3ccccc3c2=O)cc1 (stereo not drawn) [Example 39, 3-(4-sec-butylphenyl)-2-(6-chloropyridin-3-yl)quinazolin-4(3H)-one]",Active
16,"Cc1cc(-c2nc3ccccc3c(=O)n2-c2ccc(NS(=O)(=O)C(C)C)cc2)cc(C)c1OCCO [Example 31, N-(4-(2-(4-(2-hydroxyethoxy)-3,5-dimethylphenyl)-4-oxoquinazolin-3(4H)-yl)phenyl)propane-2-sulfonamide]",Active
17,"CC(C)c1ccc(-n2c(-c3ccc4[nH]ccc4c3)nc3ccccc3c2=O)cc1 [Example 77, 2-(1H-indol-5-yl)-3-(4-isopropylphenyl)quinazolin-4(3H)-one]",Active
18,"CSc1ccc(-n2c(-c3ccc(C)nc3)nc3ccccc3c2=O)cc1 [Example 64, 2-(6-methylpyridin-3-yl)-3-(4-(methylthio)phenyl)quinazolin-4(3H)-one]",Active

row,Compound,Effect on ApoA-I mRNA levels
1,"COC(=O)c1ccc(-n2c(-c3cc(C)c(OCCO)c(C)c3)nc3ccccc3c2=O)cc1 [Example 25, methyl 4-(2-(4-(2-hydroxyethoxy)-3,5-dimethylphenyl)-4-oxoquinazolin-3(4H)-yl)benzoate]",Active
2,"O=c1c2ccccc2nc(-c2ccc(Cl)nc2)n1-c1ccc(C2CC2)cc1 [Example 70, 2-(6-chloropyridin-3-yl)-3-(4-cyclopropylphenyl)quinazolin-4(3H)-one]",Active
3,"CCC(C)c1ccc(-n2c(-c3ccc(C)nc3)nc3ccccc3c2=O)cc1 (stereo not drawn) [Example 46, 3-(4-sec-butylphenyl)-2-(6-methylpyridin-3-yl)quinazolin-4(3H)-one]",Active
4,"CCC(C)c1ccc(-n2c(-c3ccc4nc(CO)[nH]c4c3)nc3ccccc3c2=O)cc1 (stereo not drawn) [Example 75, 3-(4-sec-butylphenyl)-2-(2-(hydroxymethyl)-1H-benzo[d]imidazol-6-yl)quinazolin-4(3H)-one]",Active
5,"CCC(C)c1ccc(-n2c(-c3cccc4cc[nH]c34)nc3ccccc3c2=O)cc1 (stereo not drawn) [Example 88, 3-(4-sec-butylphenyl)-2-(1H-indol-7-yl)quinazolin-4(3H)-one]",Active
6,"O=c1c2ccccc2nc(-c2cnc3c(ccn3S(=O)(=O)c3ccc(F)cc3)c2)n1-c1ccc(Cl)cc1 [Example 79, 3-(4-chlorophenyl)-2-(1-(4-fluorophenylsulfonyl)-1H-pyrrolo[2,3-b]pyridin-5-yl)quinazolin-4(3H)-one]",Active
7,"CCC(C)c1ccc(-n2c(-c3cncnc3)nc3ccccc3c2=O)cc1 (stereo not drawn) [Example 45, 3-(4-sec-butylphenyl)-2-(pyrimidin-5-yl)quinazolin-4(3H)-one]",Active
8,"CCC(C)c1ccc(-n2c(-c3ccc(CO)nc3)nc3ccccc3c2=O)cc1 (stereo not drawn) [Example 63, 3-(4-sec-butylphenyl)-2-(6-(hydroxymethyl)pyridin-3-yl)quinazolin-4(3H)-one]",Active
9,"CCC(C)c1ccc(-n2c(-c3ccc(C(F)(F)F)nc3)nc3ccccc3c2=O)cc1 (stereo not drawn) [Example 54, 3-(4-sec-butylphenyl)-2-(6-(trifluoromethyl)pyridin-3-yl)quinazolin-4(3H)-one]",Active
10,"CCC(C)c1ccc(-n2c(-c3ccc4[nH]ncc4c3)nc3ccccc3c2=O)cc1 (stereo not drawn) [Example 72, 3-(4-sec-butylphenyl)-2-(1H-indazol-5-yl)quinazolin-4(3H)-one]",Active
11,"Cc1cc(-c2nc3ccccc3c(=O)n2-c2ccc(Cl)cc2)ccc1OCCO [Example 34, 3-(4-chlorophenyl)-2-(4-(2-hydroxyethoxy)-3-methylphenyl)quinazolin-4(3H)-one]",Active
12,"CCC(C)c1ccc(-n2c(-c3ccc(-c4ccccc4)nc3)nc3ccccc3c2=O)cc1 (stereo not drawn) [Example 55, 3-(4-sec-butylphenyl)-2-(6-phenylpyridin-3-yl)quinazolin-4(3H)-one]",Active
13,"CCC(C)c1ccc(-n2c(-c3cccnc3)nc3ccccc3c2=O)cc1 (stereo not drawn) [Example 35, 3-(4-sec-butylphenyl)-2-(pyridin-3-yl)quinazolin-4(3H)-one]",Active
14,"CCC(C)c1ccc(-n2c(-c3ccc(CN4CCOCC4)nc3)nc3ccccc3c2=O)cc1 (stereo not drawn) [Example 67, 3-(4-sec-butylphenyl)-2-(6-(morpholinomethyl)pyridin-3-yl)quinazolin-4(3H)-one]",Active
15,"Cc1ccc(-c2nc3ccccc3c(=O)n2-c2ccc(NS(C)(=O)=O)cc2)cn1 [Example 66, N-(4-(2-(6-methylpyridin-3-yl)-4-oxoquinazolin-3(4H)-yl)phenyl)methanesulfonamide]",Active
16,"CCC(C)c1ccc(-n2c(-c3cccc4[nH]ccc34)nc3ccccc3c2=O)cc1 (stereo not drawn) [Example 90, 3-(4-sec-butylphenyl)-2-(1H-indol-4-yl)quinazolin-4(3H)-one]",Active
17,"Cc1cc(-c2nc3ccccc3c(=O)n2-c2ccc(N3CCOCC3)cc2)cc(C)c1OCCO [Example 21, 2-(4-(2-hydroxyethoxy)-3,5-dimethylphenyl)-3-(4-morpholinophenyl)quinazolin-4(3H)-one]",Active
18,"O=c1c2ccccc2nc(-c2ccc3cc[nH]c3c2)n1-c1ccc(Cl)cc1 [Example 85, 3-(4-chlorophenyl)-2-(1H-indol-6-yl)quinazolin-4(3H)-one]",Active
